Assay results as given in patent US12558356B2, “Immunophilin binding agents and uses thereof” (The Regents of the University of California, priority 2019, dated 2026).
Where two headings read alike, the source gives them in different places.

Key:
[1] = biological target: FKBP12 (Homo sapiens (Human), UniProt P62942); assay: FKBP12 binding assay (fluorescence polarization)
[2] = test system: p-S6 level in MCF7 cells; assay: Western blot of p-S6 level in MCF7 cells after combination treatment with Rapa/Rapalink and candidate compound (blockade score); assay type: cell-based; conditions: 24 h, p-S6 level as fraction of DMSO control; for Rapamycin Blockade: 10 nM Rapa + 10 μM candidate compound; for RapaLink-1 Blockade: 10 nM Rapalink + 10 μM candidate compound

Chain of FKBP12 (P62942 whole entry): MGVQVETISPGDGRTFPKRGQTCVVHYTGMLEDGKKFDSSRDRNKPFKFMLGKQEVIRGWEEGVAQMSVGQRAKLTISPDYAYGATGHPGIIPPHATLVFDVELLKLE

| Molecule | Kd ([1]; read-out: Kd FKBP12) | Rapamycin Blockade [2] | RapaLink-1 Blockade [2] | Kd [1] |
| --- | --- | --- | --- | --- |
| CCC(C)(C)C(=O)C(=O)N1CCCC[C@H]1C(=O)O[C@H](CCc1ccc(OC)c(OC)c1)c1cccc(NC(=O)CNN)c1 [ZZY01-070] | 21 nM | 1 (20-40%) |  |  |
| CCC(C)(C)C(=O)C(=O)N1CCCC[C@H]1C(=O)O[C@H](CCc1ccc(OC)c(OC)c1)c1cccc(NCCN)c1 [ZZY02-032] | 36.4 nM | 0 (<20%) |  |  |
| CO[C@H]1C/C(C)=C/[C@@H](C/C=C/c2cc[n+]([O-])cc2)C(=O)C[C@H](O)[C@@H](C)[C@@H](/C(C)=C/[C@@H]2CC[C@@H](O)[C@H](OC)C2)OC(=O)[C@@H]2CCCCN2C(=O)C(=O)[C@]2(O)O[C@H]([C@@H](OC)C1)[C@@H](OC)C[C@H]2C [ZZY05-061] | 0.21 nM |  | 0 (<20%) |  |
| CCC(C)(C)C(=O)C(=O)N1CCCC[C@H]1C(=O)O[C@H](CCc1ccc(OC)c(OC)c1)c1cccc(NC(=O)CCOCCN)c1 [ZZY03-084] | 18.6 nM | 2 (40%-70%) |  |  |
| CCC(C)(C)C(=O)C(=O)N1CCCC[C@H]1C(=O)O[C@H](CCc1ccc(OC)c(OC)c1)c1cccc(NC(=O)CN=[N+]=[N-])c1 [ZZY02-096] | 6 nM | 2 (40%-70%) |  |  |
| CO[C@H]1C/C(C)=C/[C@@H](CCCSCCN)C(=O)C[C@H](O)[C@@H](C)[C@@H](/C(C)=C/[C@@H]2CC[C@@H](O)[C@H](OC)C2)OC(=O)[C@@H]2CCCCN2C(=O)C(=O)[C@]2(O)O[C@H]([C@@H](OC)C1)[C@@H](OC)C[C@H]2C [ZZY05-011] |  | 3 (>70%) | 3 (>70%) | 0.69 nM |
| CCC(C)(C)C(=O)C(=O)N1CCCC[C@H]1C(=O)O[C@H](CCc1ccc(OC)c(OC)c1)c1cccc(NC(=O)CNc2ccccn2)c1 [ZZY03-091] | 37.3 nM | 2 (40%-70%) |  |  |
| CCC(C)(C)C(=O)C(=O)N1CCCC[C@H]1C(=O)O[C@H](CCc1ccc(OC)c(OC)c1)c1cccc(NC(=O)C[N+](C)(C)C)c1 [ZZY01-025] | 95 nM | 1 (20-40%) |  |  |
| CCC(C)(C)C(=O)C(=O)N1CCCC[C@H]1C(=O)O[C@H](CCc1ccc(OC)c(OC)c1)c1cccc(NC(=O)CN(C)C)c1 [ZZY01-044] | 12.7 nM | 3 (>70%) |  |  |
| CCC(C)(C)C(=O)C(=O)N1CCCC[C@H]1C(=O)O[C@H](CCc1ccc(OC)c(OC)c1)c1cccc(NC(=O)Cc2ccccn2)c1 [ZZY03-083] | 31.1 nM | 3 (>70%) | 0 (<20%) |  |
| tacrolimus [FK506, reference compound] |  | 3 (>70%) | 3 (>70%) |  |
| CO[C@H]1C/C(C)=C/[C@@H](CCCSC[C@H](N)C(=O)O)C(=O)C[C@H](O)[C@@H](C)[C@@H](/C(C)=C/[C@@H]2CC[C@@H](O)[C@H](OC)C2)OC(=O)[C@@H]2CCCCN2C(=O)C(=O)[C@]2(O)O[C@H]([C@@H](OC)C1)[C@@H](OC)C[C@H]2C [ZZY05-037] |  |  | 1 (20-40%) | 8.7 nM |
| CCC(C)(C)C(=O)C(=O)N1CCCC[C@H]1C(=O)O[C@H](CCc1ccc(OC)c(OC)c1)c1cccc(NCC(=O)O)c1 [ZZY01-060A] |  | 0 (<20%) |  |  |
| CCC(C)(C)C(=O)C(=O)N1CCCC[C@H]1C(=O)O[C@H](CCc1ccc(OC)c(OC)c1)c1cccc(NC(=O)[C@H](C)N)c1 [ZZY01-059] |  | 3 (>70%) |  |  |
| CCC(C)(C)C(=O)C(=O)N1CCCC[C@H]1C(=O)O[C@H](CCc1ccc(OC)c(OC)c1)c1cccc(NC(=O)CCC(=O)O)c1 [ZZY01-083] |  | 1 (20-40%) |  |  |
| CCC(C)(C)C(=O)C(=O)N1CCCC[C@H]1C(=O)O[C@H](CCc1ccc(OC)c(OC)c1)c1cccc(NC(=O)CCl)c1 [ZZY02-033] |  | 0 (<20%) |  |  |
| CCC(C)(C)C(=O)C(=O)N1CCCC[C@H]1C(=O)O[C@H](CCc1ccc(OC)c(OC)c1)c1cccc(N)c1 [SLF, reference compound] |  | 3 (>70%) | 0 (<20%) |  |
